Test results: US4618692A, “4-carbamoyloxy-oxazaphosphorins” (Asta-Werke Aktiengesellschaft, priority 1984, dated 1986)

Assay: cytotoxicity in vitro (general statement)
Format: cell-based

O=P1(N(CCCl)CCCl)NCCCO1 (stereo not shown) [cyclophosphamide, 2-[bis-(2-chloroethyl)-amino]-2-oxo-tetrahydro-2H-1,3,2-oxazaphosphorin]
cytotoxicity in vitro: practically no cytotoxic effect in vitro
